Here are results for three compounds from the kinase profiling compilation of Christmann-Franck et al. (2016).

Chain of CSNK1G1 (human) (Q9HCP0 whole entry, looked up): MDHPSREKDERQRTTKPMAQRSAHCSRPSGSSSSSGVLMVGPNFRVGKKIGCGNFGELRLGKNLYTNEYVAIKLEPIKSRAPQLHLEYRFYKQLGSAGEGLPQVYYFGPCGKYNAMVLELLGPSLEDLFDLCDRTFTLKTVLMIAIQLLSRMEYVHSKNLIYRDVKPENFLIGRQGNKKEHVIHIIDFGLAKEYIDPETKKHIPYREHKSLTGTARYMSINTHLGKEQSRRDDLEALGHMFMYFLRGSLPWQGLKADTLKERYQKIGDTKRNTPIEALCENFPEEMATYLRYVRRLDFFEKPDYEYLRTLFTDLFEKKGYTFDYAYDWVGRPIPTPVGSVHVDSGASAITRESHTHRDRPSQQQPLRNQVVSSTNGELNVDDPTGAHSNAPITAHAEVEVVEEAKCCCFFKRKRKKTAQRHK
Chain of SGK2 (human) (Q9HBY8 whole entry, looked up): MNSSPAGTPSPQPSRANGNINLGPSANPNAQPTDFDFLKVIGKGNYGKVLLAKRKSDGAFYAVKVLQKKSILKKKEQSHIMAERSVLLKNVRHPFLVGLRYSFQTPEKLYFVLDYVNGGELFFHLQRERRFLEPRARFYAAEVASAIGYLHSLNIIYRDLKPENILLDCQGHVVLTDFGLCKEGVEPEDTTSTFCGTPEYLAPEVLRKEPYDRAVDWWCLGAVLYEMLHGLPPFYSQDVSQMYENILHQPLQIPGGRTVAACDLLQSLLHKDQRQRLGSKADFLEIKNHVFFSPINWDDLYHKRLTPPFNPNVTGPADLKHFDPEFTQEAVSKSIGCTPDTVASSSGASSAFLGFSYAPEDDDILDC

In the first assay the target is PRKX (human) (UniProt P51817). As to the kind of experiment: radiometric filter-binding kinase assay, Kinase HotSpot. The note with it: compound 0.5 µM; ATP 10 µM.
Chain of PRKX (human) (P51817 whole entry, looked up): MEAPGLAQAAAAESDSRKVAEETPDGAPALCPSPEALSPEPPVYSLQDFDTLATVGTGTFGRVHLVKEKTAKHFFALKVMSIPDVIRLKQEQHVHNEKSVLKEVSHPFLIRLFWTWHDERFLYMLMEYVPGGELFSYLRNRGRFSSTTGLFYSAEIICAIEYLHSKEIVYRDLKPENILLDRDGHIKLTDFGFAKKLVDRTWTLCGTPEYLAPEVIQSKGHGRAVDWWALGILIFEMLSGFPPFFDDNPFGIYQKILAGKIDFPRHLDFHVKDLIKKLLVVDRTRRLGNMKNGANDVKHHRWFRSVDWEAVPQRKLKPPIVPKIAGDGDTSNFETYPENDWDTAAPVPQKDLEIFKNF
As a reminder, the residual activity is the signal under treatment as a percentage of the control signal. `O=C(Nc1cccc(Nc2nccc(Nc3cccc(C(F)(F)F)c3)n2)c1)C1CC1`: the residual activity worked out at 94.6%.

In the case of `Nc1cccc(-c2cc3c(Oc4cccc(O)c4)ncnc3[nH]2)c1`, the residual activity was 114%.

As for `CC[n+]1c(/C=C/N(C)c2ccccc2)n(-c2ccccc2)c2ccc(-c3nc4ccccc4s3)cc21`, the residual activity was determined as 108%.

The target in the next assay is HIPK4 (human) (UniProt Q8NE63). The description is as above. The following applies: compound 0.5 µM; ATP 10 µM.
Take `O=C(Nc1cccc(Nc2nccc(Nc3cccc(C(F)(F)F)c3)n2)c1)C1CC1`: the residual activity came out at 111%.

With `Nc1cccc(-c2cc3c(Oc4cccc(O)c4)ncnc3[nH]2)c1`, the residual activity worked out at 103%.

With `CC[n+]1c(/C=C/N(C)c2ccccc2)n(-c2ccccc2)c2ccc(-c3nc4ccccc4s3)cc21`, the residual activity was found to be 102%.

Another assay has as its target STK17A (human) (UniProt Q9UEE5). Described as above. The note with it: compound 0.5 µM; ATP 10 µM.
Regarding `O=C(Nc1cccc(Nc2nccc(Nc3cccc(C(F)(F)F)c3)n2)c1)C1CC1`, the residual activity was 97.6%.

For `Nc1cccc(-c2cc3c(Oc4cccc(O)c4)ncnc3[nH]2)c1`, the residual activity turned out to be 93.7%.

Consider `CC[n+]1c(/C=C/N(C)c2ccccc2)n(-c2ccccc2)c2ccc(-c3nc4ccccc4s3)cc21`, for which the residual activity stood at 96.9%.

The target of a further assay is MAP3K3 (human) (UniProt Q99759). Described as above. The note with it: compound 0.5 µM; ATP 10 µM.
Chain of MAP3K3 (human) (Q99759 whole entry, looked up): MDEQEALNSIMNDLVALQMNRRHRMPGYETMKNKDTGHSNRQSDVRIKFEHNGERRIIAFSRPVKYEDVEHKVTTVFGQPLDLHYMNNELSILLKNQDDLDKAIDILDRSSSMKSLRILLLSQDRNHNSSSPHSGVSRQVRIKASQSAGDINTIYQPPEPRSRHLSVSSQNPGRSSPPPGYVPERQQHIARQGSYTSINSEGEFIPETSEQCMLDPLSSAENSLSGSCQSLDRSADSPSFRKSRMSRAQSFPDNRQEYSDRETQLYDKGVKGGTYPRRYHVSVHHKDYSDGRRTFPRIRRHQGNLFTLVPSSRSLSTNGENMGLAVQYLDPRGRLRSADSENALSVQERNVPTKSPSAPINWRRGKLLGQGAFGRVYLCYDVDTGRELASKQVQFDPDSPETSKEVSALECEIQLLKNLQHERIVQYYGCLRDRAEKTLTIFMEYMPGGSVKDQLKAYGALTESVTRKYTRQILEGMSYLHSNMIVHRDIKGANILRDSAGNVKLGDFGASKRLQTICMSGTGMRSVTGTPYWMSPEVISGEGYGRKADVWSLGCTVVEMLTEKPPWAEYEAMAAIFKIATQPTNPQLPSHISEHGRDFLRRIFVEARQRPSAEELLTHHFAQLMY
Regarding `O=C(Nc1cccc(Nc2nccc(Nc3cccc(C(F)(F)F)c3)n2)c1)C1CC1`, the residual activity worked out at 97.9%.

In the case of `Nc1cccc(-c2cc3c(Oc4cccc(O)c4)ncnc3[nH]2)c1`, the residual activity is 96.4%.

Turning to `CC[n+]1c(/C=C/N(C)c2ccccc2)n(-c2ccccc2)c2ccc(-c3nc4ccccc4s3)cc21`, the residual activity turned out to be 109%.

The target of the next assay is PRKCB1 (human) (UniProt P05771). The assay is described as above. The note with it: compound 0.5 µM; ATP 10 µM.
For `O=C(Nc1cccc(Nc2nccc(Nc3cccc(C(F)(F)F)c3)n2)c1)C1CC1`, the residual activity worked out at 94.7%.

For `Nc1cccc(-c2cc3c(Oc4cccc(O)c4)ncnc3[nH]2)c1`, the residual activity was found to be 113%.

For `CC[n+]1c(/C=C/N(C)c2ccccc2)n(-c2ccccc2)c2ccc(-c3nc4ccccc4s3)cc21`, the residual activity came out at 102%.

The next assay addresses TXK (human) (UniProt P42681). The description is as above. The note with it: compound 0.5 µM; ATP 10 µM.
As to `O=C(Nc1cccc(Nc2nccc(Nc3cccc(C(F)(F)F)c3)n2)c1)C1CC1`, the residual activity came out at 90.2%.

With `Nc1cccc(-c2cc3c(Oc4cccc(O)c4)ncnc3[nH]2)c1`, the residual activity is 24.5%.

In the case of `CC[n+]1c(/C=C/N(C)c2ccccc2)n(-c2ccccc2)c2ccc(-c3nc4ccccc4s3)cc21`, the residual activity was 107%.

Another assay concerns the target WNK3 (human) (UniProt Q9BYP7). Described as above. The note with it: compound 0.5 µM; ATP 10 µM.
Regarding `O=C(Nc1cccc(Nc2nccc(Nc3cccc(C(F)(F)F)c3)n2)c1)C1CC1`, the residual activity turned out to be 105%.

On to `Nc1cccc(-c2cc3c(Oc4cccc(O)c4)ncnc3[nH]2)c1`, for which the residual activity worked out at 88.5%.

As to `CC[n+]1c(/C=C/N(C)c2ccccc2)n(-c2ccccc2)c2ccc(-c3nc4ccccc4s3)cc21`, the residual activity was 85.9%.

The target in another assay is MAP3K8 (human) (UniProt P41279). Described as above. The following applies: compound 0.5 µM; ATP 10 µM.
With `O=C(Nc1cccc(Nc2nccc(Nc3cccc(C(F)(F)F)c3)n2)c1)C1CC1`, the residual activity was determined as 111%.

In the case of `Nc1cccc(-c2cc3c(Oc4cccc(O)c4)ncnc3[nH]2)c1`, the residual activity was determined as 99.6%.

On to `CC[n+]1c(/C=C/N(C)c2ccccc2)n(-c2ccccc2)c2ccc(-c3nc4ccccc4s3)cc21`, for which the residual activity turned out to be 92%.

The target in a further assay is CDC42BPB (human) (UniProt Q9Y5S2). The description is as above. The following applies: compound 0.5 µM; ATP 10 µM.
Chain of CDC42BPB (human) (Q9Y5S2 whole entry, looked up): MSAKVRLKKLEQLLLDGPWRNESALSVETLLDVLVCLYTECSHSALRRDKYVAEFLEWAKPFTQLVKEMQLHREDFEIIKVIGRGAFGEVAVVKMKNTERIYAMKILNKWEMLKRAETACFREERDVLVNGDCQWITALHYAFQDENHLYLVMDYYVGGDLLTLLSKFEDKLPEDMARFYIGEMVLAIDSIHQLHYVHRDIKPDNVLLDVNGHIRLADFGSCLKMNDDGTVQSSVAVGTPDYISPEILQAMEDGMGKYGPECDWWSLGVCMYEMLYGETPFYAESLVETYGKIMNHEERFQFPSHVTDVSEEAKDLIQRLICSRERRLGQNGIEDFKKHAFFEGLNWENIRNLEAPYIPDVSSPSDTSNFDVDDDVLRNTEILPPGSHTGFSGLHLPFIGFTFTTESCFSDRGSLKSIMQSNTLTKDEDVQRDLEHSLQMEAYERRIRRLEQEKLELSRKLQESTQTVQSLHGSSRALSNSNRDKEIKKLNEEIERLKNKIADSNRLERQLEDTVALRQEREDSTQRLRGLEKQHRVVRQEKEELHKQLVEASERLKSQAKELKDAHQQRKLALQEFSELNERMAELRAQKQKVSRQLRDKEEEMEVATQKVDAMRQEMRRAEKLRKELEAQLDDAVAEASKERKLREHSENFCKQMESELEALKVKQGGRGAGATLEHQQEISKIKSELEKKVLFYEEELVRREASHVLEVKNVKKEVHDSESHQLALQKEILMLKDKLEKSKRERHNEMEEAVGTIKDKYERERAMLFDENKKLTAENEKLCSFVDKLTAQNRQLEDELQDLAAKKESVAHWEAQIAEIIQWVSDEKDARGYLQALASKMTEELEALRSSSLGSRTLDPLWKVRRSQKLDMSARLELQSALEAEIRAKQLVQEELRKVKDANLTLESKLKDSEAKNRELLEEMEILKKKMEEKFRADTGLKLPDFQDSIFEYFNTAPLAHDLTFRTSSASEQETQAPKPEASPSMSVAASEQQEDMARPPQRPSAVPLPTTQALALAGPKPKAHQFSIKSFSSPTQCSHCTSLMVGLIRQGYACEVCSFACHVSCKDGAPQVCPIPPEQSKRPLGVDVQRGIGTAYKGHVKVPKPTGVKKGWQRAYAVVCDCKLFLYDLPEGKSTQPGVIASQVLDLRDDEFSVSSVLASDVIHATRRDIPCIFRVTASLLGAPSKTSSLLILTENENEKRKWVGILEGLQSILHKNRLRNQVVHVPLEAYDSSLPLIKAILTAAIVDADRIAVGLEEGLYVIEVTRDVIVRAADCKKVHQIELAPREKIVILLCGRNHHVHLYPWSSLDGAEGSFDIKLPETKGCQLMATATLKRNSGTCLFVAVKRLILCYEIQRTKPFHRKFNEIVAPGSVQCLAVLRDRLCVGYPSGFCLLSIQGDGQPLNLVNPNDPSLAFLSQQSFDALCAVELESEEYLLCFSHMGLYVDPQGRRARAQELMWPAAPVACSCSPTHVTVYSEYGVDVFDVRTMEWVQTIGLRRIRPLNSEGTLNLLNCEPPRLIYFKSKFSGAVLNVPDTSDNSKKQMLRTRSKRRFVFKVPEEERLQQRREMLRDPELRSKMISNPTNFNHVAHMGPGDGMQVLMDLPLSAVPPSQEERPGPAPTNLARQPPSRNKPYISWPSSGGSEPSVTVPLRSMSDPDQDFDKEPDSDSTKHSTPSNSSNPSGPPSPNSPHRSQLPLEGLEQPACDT
Regarding `O=C(Nc1cccc(Nc2nccc(Nc3cccc(C(F)(F)F)c3)n2)c1)C1CC1`, the residual activity was found to be 96.6%.

`Nc1cccc(-c2cc3c(Oc4cccc(O)c4)ncnc3[nH]2)c1`: the residual activity was found to be 93.5%.

Consider `CC[n+]1c(/C=C/N(C)c2ccccc2)n(-c2ccccc2)c2ccc(-c3nc4ccccc4s3)cc21`, for which the residual activity turned out to be 95%.

The target in another assay is CHEK2 (human) (UniProt O96017). Described as above. The following applies: compound 0.5 µM; ATP 10 µM.
Chain of CHEK2 (human) (O96017 whole entry, looked up): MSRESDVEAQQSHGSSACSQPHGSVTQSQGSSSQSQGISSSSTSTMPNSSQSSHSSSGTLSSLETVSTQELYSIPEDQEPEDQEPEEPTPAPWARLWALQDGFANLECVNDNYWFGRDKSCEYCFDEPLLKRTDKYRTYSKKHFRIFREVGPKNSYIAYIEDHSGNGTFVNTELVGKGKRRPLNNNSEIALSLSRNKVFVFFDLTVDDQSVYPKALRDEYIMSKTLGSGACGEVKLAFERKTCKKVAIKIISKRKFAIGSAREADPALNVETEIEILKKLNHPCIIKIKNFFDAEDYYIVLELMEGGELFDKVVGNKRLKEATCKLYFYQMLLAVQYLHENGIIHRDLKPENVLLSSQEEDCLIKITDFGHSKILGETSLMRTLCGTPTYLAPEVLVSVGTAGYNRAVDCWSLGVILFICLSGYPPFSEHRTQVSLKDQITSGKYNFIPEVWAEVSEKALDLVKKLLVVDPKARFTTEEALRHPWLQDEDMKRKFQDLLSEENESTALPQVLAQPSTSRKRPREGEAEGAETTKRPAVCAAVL
As for `O=C(Nc1cccc(Nc2nccc(Nc3cccc(C(F)(F)F)c3)n2)c1)C1CC1`, the residual activity came to 107%.

Turning to `Nc1cccc(-c2cc3c(Oc4cccc(O)c4)ncnc3[nH]2)c1`, the residual activity was found to be 75.8%.

On to `CC[n+]1c(/C=C/N(C)c2ccccc2)n(-c2ccccc2)c2ccc(-c3nc4ccccc4s3)cc21`, for which the residual activity came out at 105%.

The next assay has as its target SGK2 (human) (UniProt Q9HBY8). Described as above. The note with it: compound 0.5 µM; ATP 10 µM.
In the case of `O=C(Nc1cccc(Nc2nccc(Nc3cccc(C(F)(F)F)c3)n2)c1)C1CC1`, the residual activity is 118%.

Take `Nc1cccc(-c2cc3c(Oc4cccc(O)c4)ncnc3[nH]2)c1`: the residual activity turned out to be 96.2%.

For `CC[n+]1c(/C=C/N(C)c2ccccc2)n(-c2ccccc2)c2ccc(-c3nc4ccccc4s3)cc21`, the residual activity amounted to 123%.

The next assay deals with CAMK4 (human) (UniProt Q16566). The assay is described as above. The note with it: compound 0.5 µM; ATP 10 µM.
Chain of CAMK4 (human) (Q16566 whole entry, looked up): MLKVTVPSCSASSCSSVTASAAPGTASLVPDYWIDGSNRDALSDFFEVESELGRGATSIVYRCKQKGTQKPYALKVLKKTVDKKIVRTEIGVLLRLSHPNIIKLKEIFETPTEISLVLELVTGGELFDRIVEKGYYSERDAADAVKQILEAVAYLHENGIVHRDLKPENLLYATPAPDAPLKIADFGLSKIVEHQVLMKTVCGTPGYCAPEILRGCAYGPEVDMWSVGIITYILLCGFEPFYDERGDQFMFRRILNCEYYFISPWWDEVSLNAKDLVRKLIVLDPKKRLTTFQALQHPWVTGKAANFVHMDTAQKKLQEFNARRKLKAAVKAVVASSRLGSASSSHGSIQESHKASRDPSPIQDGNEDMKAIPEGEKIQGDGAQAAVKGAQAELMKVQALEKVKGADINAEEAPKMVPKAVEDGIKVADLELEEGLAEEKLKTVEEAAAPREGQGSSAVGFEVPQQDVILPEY
Turning to `O=C(Nc1cccc(Nc2nccc(Nc3cccc(C(F)(F)F)c3)n2)c1)C1CC1`, the residual activity was 97.9%.

Turning to `Nc1cccc(-c2cc3c(Oc4cccc(O)c4)ncnc3[nH]2)c1`, the residual activity came out at 94.9%.

Turning to `CC[n+]1c(/C=C/N(C)c2ccccc2)n(-c2ccccc2)c2ccc(-c3nc4ccccc4s3)cc21`, the residual activity stood at 93.2%.

A further assay has as its target RPS6KA2 KD1 KD2 (human) (UniProt Q15349). The description is as above. The following applies: compound 0.5 µM; ATP 10 µM.
Turning to `O=C(Nc1cccc(Nc2nccc(Nc3cccc(C(F)(F)F)c3)n2)c1)C1CC1`, the residual activity stood at 101%.

For `Nc1cccc(-c2cc3c(Oc4cccc(O)c4)ncnc3[nH]2)c1`, the residual activity was determined as 91.5%.

For the compound `CC[n+]1c(/C=C/N(C)c2ccccc2)n(-c2ccccc2)c2ccc(-c3nc4ccccc4s3)cc21`, the residual activity came out at 101%.

The target in the next assay is MAPK11 (human) (UniProt Q15759). The assay is described as above. The following applies: compound 0.5 µM; ATP 10 µM.
Turning to `O=C(Nc1cccc(Nc2nccc(Nc3cccc(C(F)(F)F)c3)n2)c1)C1CC1`, the residual activity stood at 103%.

On to `Nc1cccc(-c2cc3c(Oc4cccc(O)c4)ncnc3[nH]2)c1`, for which the residual activity amounted to 108%.

For the compound `CC[n+]1c(/C=C/N(C)c2ccccc2)n(-c2ccccc2)c2ccc(-c3nc4ccccc4s3)cc21`, the residual activity came out at 101%.

In a further assay the target is FGFR4 (human) (UniProt P22455). Described as above. The following applies: compound 0.5 µM; ATP 10 µM.
Take `O=C(Nc1cccc(Nc2nccc(Nc3cccc(C(F)(F)F)c3)n2)c1)C1CC1`: the residual activity turned out to be 101%.

As to `Nc1cccc(-c2cc3c(Oc4cccc(O)c4)ncnc3[nH]2)c1`, the residual activity came to 45.1%.

`CC[n+]1c(/C=C/N(C)c2ccccc2)n(-c2ccccc2)c2ccc(-c3nc4ccccc4s3)cc21`: the residual activity stood at 84.1%.

The target of the next assay is NLK (human) (UniProt Q9UBE8). Described as above. The note with it: compound 0.5 µM; ATP 10 µM.
Chain of NLK (human) (Q9UBE8 whole entry, looked up): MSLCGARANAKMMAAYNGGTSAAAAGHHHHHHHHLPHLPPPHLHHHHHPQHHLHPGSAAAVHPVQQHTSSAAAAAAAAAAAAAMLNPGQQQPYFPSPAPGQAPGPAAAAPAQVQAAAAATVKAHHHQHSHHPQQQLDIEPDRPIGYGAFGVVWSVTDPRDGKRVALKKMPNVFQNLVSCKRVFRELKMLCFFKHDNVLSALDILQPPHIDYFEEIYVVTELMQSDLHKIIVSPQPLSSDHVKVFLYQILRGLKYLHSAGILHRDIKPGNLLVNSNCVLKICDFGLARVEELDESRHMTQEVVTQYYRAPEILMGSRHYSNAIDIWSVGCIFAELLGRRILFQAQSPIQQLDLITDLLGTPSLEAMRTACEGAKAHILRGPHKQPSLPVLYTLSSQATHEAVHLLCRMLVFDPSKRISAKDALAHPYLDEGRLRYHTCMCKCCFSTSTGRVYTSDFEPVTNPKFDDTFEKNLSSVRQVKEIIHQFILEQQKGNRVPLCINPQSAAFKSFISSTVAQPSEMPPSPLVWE
Turning to `O=C(Nc1cccc(Nc2nccc(Nc3cccc(C(F)(F)F)c3)n2)c1)C1CC1`, the residual activity was determined as 101%.

In the case of `Nc1cccc(-c2cc3c(Oc4cccc(O)c4)ncnc3[nH]2)c1`, the residual activity was determined as 87.7%.

`CC[n+]1c(/C=C/N(C)c2ccccc2)n(-c2ccccc2)c2ccc(-c3nc4ccccc4s3)cc21`: the residual activity worked out at 105%.

The target of another assay is PRKD1 (human) (UniProt Q15139). The description is as above. The note with it: compound 0.5 µM; ATP 10 µM.
As to `O=C(Nc1cccc(Nc2nccc(Nc3cccc(C(F)(F)F)c3)n2)c1)C1CC1`, the residual activity worked out at 94.1%.

Regarding `Nc1cccc(-c2cc3c(Oc4cccc(O)c4)ncnc3[nH]2)c1`, the residual activity worked out at 94.4%.

For the compound `CC[n+]1c(/C=C/N(C)c2ccccc2)n(-c2ccccc2)c2ccc(-c3nc4ccccc4s3)cc21`, the residual activity was determined as 91.9%.

Another assay concerns the target CSNK1G1 (human) (UniProt Q9HCP0). Described as above. The following applies: compound 0.5 µM; ATP 10 µM.
As to `O=C(Nc1cccc(Nc2nccc(Nc3cccc(C(F)(F)F)c3)n2)c1)C1CC1`, the residual activity was determined as 105%.

Take `Nc1cccc(-c2cc3c(Oc4cccc(O)c4)ncnc3[nH]2)c1`: the residual activity was found to be 102%.

For the compound `CC[n+]1c(/C=C/N(C)c2ccccc2)n(-c2ccccc2)c2ccc(-c3nc4ccccc4s3)cc21`, the residual activity was 104%.

The target in a further assay is JAK1 JH1 catalytic (human) (UniProt P23458). Described as above. The note with it: compound 0.5 µM; ATP 10 µM.
In the case of `O=C(Nc1cccc(Nc2nccc(Nc3cccc(C(F)(F)F)c3)n2)c1)C1CC1`, the residual activity was 74%.

For the compound `Nc1cccc(-c2cc3c(Oc4cccc(O)c4)ncnc3[nH]2)c1`, the residual activity came out at 106%.

`CC[n+]1c(/C=C/N(C)c2ccccc2)n(-c2ccccc2)c2ccc(-c3nc4ccccc4s3)cc21`: the residual activity amounted to 104%.

Another assay deals with TEK (human) (UniProt Q02763). The description is as above. The note with it: compound 0.5 µM; ATP 10 µM.
For `O=C(Nc1cccc(Nc2nccc(Nc3cccc(C(F)(F)F)c3)n2)c1)C1CC1`, the residual activity is 101%.

For the compound `Nc1cccc(-c2cc3c(Oc4cccc(O)c4)ncnc3[nH]2)c1`, the residual activity was 60.7%.

With `CC[n+]1c(/C=C/N(C)c2ccccc2)n(-c2ccccc2)c2ccc(-c3nc4ccccc4s3)cc21`, the residual activity was determined as 96%.

Another assay has as its target DYRK1B (human) (UniProt Q9Y463). The assay is described as above. The note with it: compound 0.5 µM; ATP 10 µM.
`O=C(Nc1cccc(Nc2nccc(Nc3cccc(C(F)(F)F)c3)n2)c1)C1CC1`: the residual activity stood at 96.3%.
